These are literature values, as cited in patent US20170037184A1, “VITAMIN E-BASED NANOCARRIERS FOR DRUG DELIVERY AND METHODS OF MAKING AND USING THE SAME” (THE CORPORATION OF MERCER UNIVERSITY, priority 2014, published 2017).

For this data set the following is noted: ethylenediamine group of DET conjugated to polyasparagine.

Take `NCCNCCN` [DET, diethylenetriamine]: the pKa1 was 9.5 and the pKa2 is 6.0.
